Experimental data as given in patent US12077503B2, “Substituted cyclic amides and their use as herbicides” (FMC CORPORATION, priority 2015, dated 2024).

Tests used:
Format in all cases: in vivo
[1] = test system: barnyardgrass (Echinochloa crus-galli); experiment: Test B flooded paddy test; details: Echinochloa crus-galli, 250 g ai/ha, Flood; 0 to 100 scale where 0 is no effect and 100 is complete control; read-out: Barnyardgrass plant response rating
In short: (§1)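 Compound goes directly into floodwater once pots are flooded 3 cm above soil, targeting plants at two leaves; the water depth is then held for the test duration. Plants sit 13–15 d in a greenhouse and are rated visually, 100 denoting complete control.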

[2] = test system: rice (Oryra sativa); experiment: Test B flooded paddy test; details: Oryza sativa, 250 g ai/ha, Flood; 0 to 100 scale where 0 is no effect and 100 is complete control; read-out: Rice plant response rating
In short: as §1

[3] = test system: ducksalad (Heteranthera limosa); experiment: Test B flooded paddy test; details: Heteranthera limosa, 250 g ai/ha, Flood; 0 to 100 scale where 0 is no effect and 100 is complete control; read-out: Ducksalad plant response rating
In short: as §1

[4] = test system: sedge, umbrella (small-flower umbrella sedge, Cyperus difformis); experiment: Test B flooded paddy test; details: Cyperus difformis, 250 g ai/ha, Flood; 0 to 100 scale where 0 is no effect and 100 is complete control; read-out: Sedge, Umbrella plant response rating
In short: as §1

[5] = test system: ragweed (common ragweed, Ambrosia elatior); experiment: Test A preemergence; details: Ambrosia artemisiifolia, pre-emergence, 240 h, 0 to 100 scale where 0 is no effect and 100 is complete control, read-out: Ragweed plant response rating
In short: (§2)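 Visual injury, scored on a 0–100 scale relative to untreated controls, was recorded about 10 d after application. Treatments were a preemergence soil spray over planted seeds or a postemergence spray on plants at the one- to two-leaf stage, 2 to 10 cm tall, all in loam soil–sand blend in the greenhouse.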

[6] = test system: barnyardgrass (Echinochloa crus-galli); experiment: Test A preemergence; details: Echinochloa crus-galli, pre-emergence, 240 h, Preemergence
In short: as §2

[7] = test system: pigweed (Amaranthus retroflexus); experiment: Test A preemergence; details: Amaranthus retroflexus, pre-emergence, 240 h, 0 to 100 scale where 0 is no effect and 100 is complete control, read-out: Pigweed plant response rating
[8] = test system: Kochia (Kochia scoparia); experiment: Test A preemergence; details: Bassia scoparia, pre-emergence, 240 h, 0 to 100 scale where 0 is no effect and 100 is complete control, read-out: Kochia plant response rating
In short: as §2

[9] = test system: ryegrass, Italian (Italian ryegrass, Lolium multiflorum); experiment: Test A preemergence; details: Lolium multiflorum, pre-emergence, 240 h, 0 to 100 scale where 0 is no effect and 100 is complete control, read-out: Ryegrass, Italian plant response rating
In short: as §2

[10] = test system: giant foxtail (Setaria faberii); experiment: Test A preemergence; details: Setaria faberi, pre-emergence, 240 h, Preemergence
In short: as §2

[11] = test system: ragweed (common ragweed, Ambrosia elatior); experiment: Test A postemergence; details: Ambrosia artemisiifolia, post-emergence, 240 h
In short: as §2

[12] = test system: barnyardgrass (Echinochloa crus-galli); experiment: Test A postemergence; details: Echinochloa crus-galli, post-emergence, 240 h
In short: as §2

[13] = test system: pigweed (Amaranthus retroflexus); experiment: Test A postemergence; details: Amaranthus retroflexus, post-emergence, 240 h
In short: as §2

[14] = test system: corn (Zea mays); experiment: Test A postemergence; details: Zea mays, post-emergence, 240 h
In short: as §2

[15] = test system: wheat (Triticum aestivum); experiment: Test A postemergence; details: Triticum aestivum, post-emergence, 240 h
In short: as §2

[16] = test system: Kochia (Kochia scoparia); experiment: Test A postemergence; details: Bassia scoparia, post-emergence, 240 h
In short: as §2

[17] = test system: ryegrass, Italian (Italian ryegrass, Lolium multiflorum); experiment: Test A postemergence; details: Lolium multiflorum, post-emergence, 240 h
In short: as §2

[18] = test system: Galium (catchweed bedstraw, Galium aparine); experiment: Test A postemergence; details: Galium, post-emergence, 240 h
In short: as §2

[19] = test system: blackgrass (Alopecurus myosuroides); experiment: Test A postemergence; details: Alopecurus myosuroides, post-emergence, 240 h
In short: as §2

[20] = test system: giant foxtail (Setaria faberii); experiment: Test A postemergence; details: Setaria faberi, post-emergence, 240 h
In short: as §2

[21] = 125 g ai/ha, preemergence, approx. 10 d

CN1C[C@H](c2ccc(C(F)(F)F)cc2)[C@@H](C(=O)Nc2cnccc2C(F)(F)F)C1=O [Compound 1065]
pest or weed control at 250 g/ha [1]: 0%
pest or weed control at 250 g/ha [2]: 0%
pest or weed control at 250 g/ha [3]: 100%
pest or weed control at 250 g/ha [4]: 0%
pest or weed control at 31 g/ha ([5]; 31 g ai/ha, Preemergence): 0%
pest or weed control at 125 g/ha [5, 21]: 0%
pest or weed control at 31 g/ha ([6]; 31 g ai/ha, 0 to 100 scale where 0 is no effect and 100 is complete control, read-out: Barnyardgrass plant response rating): 0%
pest or weed control at 125 g/ha ([6]; 125 g ai/ha, visual injury rating after approximately 10 d, read-out: Barnyardgrass plant response rating (0 to 100 scale, 0 is no effect, 100 is complete control)): 70%
pest or weed control at 31 g/ha ([7]; 31 g ai/ha, Preemergence): 30%
pest or weed control at 125 g/ha [7, 21]: 70%
pest or weed control at 31 g/ha ([8]; 31 g ai/ha, Preemergence): 0%
pest or weed control at 125 g/ha [8, 21]: 70%
pest or weed control at 31 g/ha ([9]; 31 g ai/ha, Preemergence): 0%
pest or weed control at 125 g/ha [9, 21]: 30%
pest or weed control at 31 g/ha ([10]; 31 g ai/ha, 0 to 100 scale where 0 is no effect and 100 is complete control, read-out: Foxtail, Giant plant response rating): 90%
pest or weed control at 125 g/ha ([10]; 125 g ai/ha, visual injury rating after approximately 10 d, read-out: Foxtail, Giant plant response rating (0 to 100 scale, 0 is no effect, 100 is complete control)): 100%
pest or weed control at 125 g/ha ([11]; 125 g ai/ha, postemergence, visual injury on 0 to 100 scale (0 no effect, 100 complete control), approx. 10 d, read-out: Ragweed plant response rating): 0%
pest or weed control at 31 g/ha ([11]; Postemergence, 31 g ai/ha, visual injury after approx. 10 d, 0 to 100 scale, 0 no effect, 100 complete control, read-out: Plant response rating, Ragweed): 0%
pest or weed control at 125 g/ha ([12]; 125 g ai/ha, postemergence, visual injury on 0 to 100 scale (0 no effect, 100 complete control), approx. 10 d, read-out: Barnyardgrass plant response rating): 40%
pest or weed control at 31 g/ha ([12]; Postemergence, 31 g ai/ha, visual injury after approx. 10 d, 0 to 100 scale, 0 no effect, 100 complete control, read-out: Plant response rating, Barnyardgrass): 0%
pest or weed control at 125 g/ha ([13]; 125 g ai/ha, postemergence, visual injury on 0 to 100 scale (0 no effect, 100 complete control), approx. 10 d, read-out: Pigweed plant response rating): 40%
pest or weed control at 31 g/ha ([13]; Postemergence, 31 g ai/ha, visual injury after approx. 10 d, 0 to 100 scale, 0 no effect, 100 complete control, read-out: Plant response rating, Pigweed): 0%
plant injury at 125 g/ha ([14]; 125 g ai/ha, postemergence, visual injury on 0 to 100 scale (0 no effect, 100 complete control), approx. 10 d, read-out: Corn plant response rating): 20%
Corn plant response rating (crop injury, 0 = no effect, 100 = complete kill) at 31 g/ha ([14]; Postemergence, 31 g ai/ha, visual injury after approx. 10 d, 0 to 100 scale, 0 no effect, 100 complete control): 0%
plant injury at 125 g/ha ([15]; 125 g ai/ha, postemergence, visual injury on 0 to 100 scale (0 no effect, 100 complete control), approx. 10 d, read-out: Wheat plant response rating): 20%
plant injury at 31 g/ha ([15]; Postemergence, 31 g ai/ha, visual injury after approx. 10 d, 0 to 100 scale, 0 no effect, 100 complete control, read-out: Plant response rating, Wheat): 0%
pest or weed control at 125 g/ha ([16]; 125 g ai/ha, postemergence, visual injury on 0 to 100 scale (0 no effect, 100 complete control), approx. 10 d, read-out: Kochia plant response rating): 40%
pest or weed control at 31 g/ha ([16]; Postemergence, 31 g ai/ha, visual injury after approx. 10 d, 0 to 100 scale, 0 no effect, 100 complete control, read-out: Plant response rating, Kochia): 0%
pest or weed control at 125 g/ha ([17]; 125 g ai/ha, postemergence, visual injury on 0 to 100 scale (0 no effect, 100 complete control), approx. 10 d, read-out: Ryegrass, Italian plant response rating): 40%
pest or weed control at 31 g/ha ([17]; Postemergence, 31 g ai/ha, visual injury after approx. 10 d, 0 to 100 scale, 0 no effect, 100 complete control, read-out: Plant response rating, Ryegrass, Italian): 0%
pest or weed control at 125 g/ha ([18]; 125 g ai/ha, postemergence, visual injury on 0 to 100 scale (0 no effect, 100 complete control), approx. 10 d, read-out: Galium plant response rating): 70%
pest or weed control at 31 g/ha ([18]; Postemergence, 31 g ai/ha, visual injury after approx. 10 d, 0 to 100 scale, 0 no effect, 100 complete control, read-out: Plant response rating, Galium): 40%
pest or weed control at 125 g/ha ([19]; 125 g ai/ha, postemergence, visual injury on 0 to 100 scale (0 no effect, 100 complete control), approx. 10 d, read-out: Blackgrass plant response rating): 50%
pest or weed control at 31 g/ha ([19]; Postemergence, 31 g ai/ha, visual injury after approx. 10 d, 0 to 100 scale, 0 no effect, 100 complete control, read-out: Plant response rating, Blackgrass): 0%
pest or weed control at 125 g/ha ([20]; 125 g ai/ha, postemergence, visual injury on 0 to 100 scale (0 no effect, 100 complete control), approx. 10 d, read-out: Foxtail, Giant plant response rating): 70%
pest or weed control at 31 g/ha ([20]; Postemergence, 31 g ai/ha, visual injury after approx. 10 d, 0 to 100 scale, 0 no effect, 100 complete control, read-out: Plant response rating, Foxtail, Giant): 0%
